US4172891A, “Cephalosporins” (Takeda Chemical Industries, Inc., priority 1976, dated 1979)
Read-outs that look alike come from different tables or passages of the source.

Assays:
Escherichia coli O-111 = test: Comparative protection test on infected mice; assay type: in vivo; settings: O111, sc, 168 h; male ICR/SLC mice infected intraperitoneally with Escherichia coli O-111; single subcutaneous dose immediately after challenge; 7 days observation
Source text: (§1) Following each example is a tabulation of the minimal inhibitory concentrations (MIC) of the present compound [I] obtained in accordance with the particular example against several representative gram-negative bacteria and the corresponding concentrations of cephaloridine [7-(2-thienylacetamido)-3-(1-pyridyl)methyl-3-cephem-4-carboxylic acid betaine] and cefazolin [sodium 7-(1H-tetrazol-1-yl)acetamido-3-(2-methyl-1,3,4-thiadiazol-5-yl)thiomethyl-3-cephem-4-carboxylate], both of which are typical cephalosporins commercially available and clinically accepted nowadays [The New England Journal of Medicine 294, 24 (1976) and Journal of Pharmaceutical Science 64, 1899 (1975)]. There are also shown the effective doses of the typical compounds of this invention on the mice infected with Escherichia coli in comparison with that of cephaloridine.
Comparative protection tests of the compounds of this
invention and cephaloridine on infected mice
*Test animals: male mice (ICR/SLC) 5 mice per group per single dose
Infection: intraperitoneally with Escherichia coli O-111
Administration: a single subcutaneous dose immediately after challenge
Observation period: 7 days

E. coli T-7 = test: Minimum Inhibitory Concentration, agar dilution, E. coli T-7; assay type: cell-based; settings: Escherichia coli
Source text: (§2) […]. | Minimum Inhibitory Concentrations (mcg/ml, agar dilution)

E. coli O-111 = test: Minimum Inhibitory Concentration, agar dilution, E. coli O-111; assay type: cell-based; settings: Escherichia coli
Source text: as §1
Minimum Inhibitory Concentrations (mcg/ml, agar dilution)

Cit. freundii GN 99 = test: Minimum Inhibitory Concentration, agar dilution, Cit. freundii GN 99; assay type: cell-based; settings: Citrobacter freundii
Source text: as §2

E. coli NIHJ = test: Minimum Inhibitory Concentration, agar dilution, E. coli NIHJ; assay type: cell-based; settings: Escherichia coli, read-out: Minimum Inhibitory Concentration
Source text: as §2

Cit. freundii GN 1706 = test: Minimum Inhibitory Concentration, agar dilution, Cit. freundii GN 1706; assay type: cell-based; settings: Citrobacter freundii
Source text: as §2

P. rettgeri 8(TNO 336) = test: Minimum Inhibitory Concentration, agar dilution, P. rettgeri 8(TNO 336); assay type: cell-based, Proteus rettgeri; settings: Providencia rettgeri
Source text: as §2

P. morganii IFO 3168 = test: Minimum Inhibitory Concentration, agar dilution, P. morganii IFO 3168; assay type: cell-based, Proteus morganii; settings: Morganella morganii
Source text: as §2

P. mirabilis GN 4359 = test: Minimum Inhibitory Concentration, agar dilution, P. mirabilis GN 4359; assay type: cell-based; settings: Proteus mirabilis
Source text: as §2

P. vulgaris IFO 3988 = test: Minimum Inhibitory Concentration, agar dilution, P. vulgaris IFO 3988; assay type: cell-based; settings: Proteus vulgaris
Source text: as §2

P. rettgeri GN 4733 = test: Minimum Inhibitory Concentration, agar dilution, P. rettgeri GN 4733; assay type: cell-based, Proteus rettgeri; settings: Providencia rettgeri
Source text: as §2

K. pneumoniae DT = test: Minimum Inhibitory Concentration, agar dilution, K. pneumoniae DT; assay type: cell-based; settings: Klebsiella pneumoniae, read-out: Minimum Inhibitory Concentration
Source text: as §2

Ent. cloacae IFO 12937 = test: Minimum Inhibitory Concentration, agar dilution, Ent. cloacae IFO 12937; assay type: cell-based; settings: Enterobacter cloacae
K. pneumoniae GN 3835 = test: Minimum Inhibitory Concentration, agar dilution, K. pneumoniae GN 3835; assay type: cell-based; settings: Klebsiella pneumoniae
Source text: as §2

[1] = T7, E. coli T-7, agar dilution, read-out: Minimum Inhibitory Concentration
[2] = O111, E. coli O-111, agar dilution, read-out: Minimum Inhibitory Concentration
[3] = GN99, Cit. freundii GN 99, agar dilution, read-out: Minimum Inhibitory Concentration
[4] = GN1706, Cit. freundii GN 1706, agar dilution, read-out: Minimum Inhibitory Concentration
[5] = P. rettgeri 8(TNO 336), read-out: Minimum Inhibitory Concentration
[6] = IFO3168, P. morganii IFO 3168, agar dilution, read-out: Minimum Inhibitory Concentration
[7] = GN4359, P. mirabilis GN 4359, agar dilution, read-out: Minimum Inhibitory Concentration
[8] = IFO3988, P. vulgaris IFO 3988, agar dilution, read-out: Minimum Inhibitory Concentration
[9] = GN4733, P. rettgeri GN 4733, agar dilution, read-out: Minimum Inhibitory Concentration
[10] = K. pneumoniae DT, agar dilution
[11] = IFO12937, Ent. cloacae IFO 12937, agar dilution, read-out: Minimum Inhibitory Concentration
[12] = GN3835, K. pneumoniae GN 3835, agar dilution, read-out: Minimum Inhibitory Concentration
[13] = T7, read-out: Minimum Inhibitory Concentration
[14] = GN99, read-out: Minimum Inhibitory Concentration
[15] = GN3835, read-out: Minimum Inhibitory Concentration
[16] = GN1706, read-out: Minimum Inhibitory Concentration
[17] = read-out: Minimum Inhibitory Concentration, P. rettgeri 8(TNO 336)
[18] = IFO3168, read-out: Minimum Inhibitory Concentration
[19] = GN4359, read-out: Minimum Inhibitory Concentration
[20] = IFO3988, read-out: Minimum Inhibitory Concentration
[21] = GN4733, read-out: Minimum Inhibitory Concentration

Row | SMILES | ED50 (Escherichia coli O-111) | MIC (E. coli T-7; [1]) | MIC (E. coli O-111; [2]) | MIC (Cit. freundii GN 99; [3]) | MIC (E. coli NIHJ; E. coli NIHJ, agar dilution) | MIC (Cit. freundii GN 1706; [4]) | MIC (P. rettgeri 8(TNO 336); [5]) | MIC (P. morganii IFO 3168; [6]) | MIC (P. mirabilis GN 4359; [7]) | MIC (P. vulgaris IFO 3988; [8]) | MIC (P. rettgeri GN 4733; [9]) | MIC (K. pneumoniae DT; [10]) | MIC (Ent. cloacae IFO 12937; [11]) | MIC (K. pneumoniae GN 3835; [12]) | also measured
1 | Cn1nnnc1SCC1=C(C(=O)O)N2C(=O)C(NC(=O)Cc3csc(=N)n3O)[C@H]2SC1 (some centres unmarked) [Example 9, 7-[2-(2-imino-3-hydroxy-4-thiazolin-4-yl)acetamido]-3-(1-methyltetrazol-5-yl)thiomethyl-3-cephem-4-carboxylic acid] | 0.04 mg/kg | – | – | – | – | – | – | – | – | – | – | – | – | – | –
2 | Cc1nsc(SCC2=C(C(=O)O)N3C(=O)C(NC(=O)Cc4csc(=N)n4O)C3SC2)n1 (centres unmarked) [Example 15, sodium 7-[2-(2-imino-3-hydroxy-4-thiazolin-4-yl)acetamido]-3-(3-methyl-1,2,4-thiadiazol-5-yl) thiomethyl-3-cephem-4-carboxylate] | – | 6.25 µg/mL | 0.1 µg/mL | 0.78 µg/mL | 0.39 µg/mL | 12.5 µg/mL | ≤ 0.012 µg/mL | 1.56 µg/mL | 0.1 µg/mL | 0.1 µg/mL | 0.2 µg/mL | 0.1 µg/mL | – | – | –
3 | N=c1scc(CC(=O)NC2C(=O)N3C(C(=O)O)=C(CSc4c[nH]nn4)CSC23)n1O (centres unmarked) [Example 7, sodium 7-[2-(2-imino-3-hydroxy-4-thiazolin-4-yl)acetamido]-3-(1H-1,2,3-triazol-4-yl)thiomethyl-3-cephem-4-carboxylate] | 0.056 mg/kg | 3.13 µg/mL | 0.05 µg/mL | 1.56 µg/mL | 0.78 µg/mL | 12.5 µg/mL | ≤ 0.03 µg/mL | 0.39 µg/mL | 0.1 µg/mL | 0.2 µg/mL | 0.78 µg/mL | 0.1 µg/mL | > 100 µg/mL | 0.1 µg/mL | –
4 | N=c1scc(CC(=O)NC2C(=O)N3C(C(=O)O)=C(CSc4nnc(C(F)(F)F)s4)CSC23)n1O (centres unmarked) [Example 16, sodium 7-[2-(2-imino-3-hydroxy-4-thiazolin-4-yl)acetamido]-3-(2-trifluorometyl-1,3,4-thiadiazol-5-yl)thiomethyl-3-cephem-4-carboxylate] | – | 12.5 µg/mL | – | 0.78 µg/mL | 0.78 µg/mL | 6.25 µg/mL | ≤ 0.012 µg/mL | 3.13 µg/mL | 0.78 µg/mL | 0.2 µg/mL | 1.56 µg/mL | 0.39 µg/mL | – | – | MIC (E. coli O-111; O111, read-out: Minimum Inhibitory Concentration): 0.39 µg/mL
5 | CC(=O)OCC1=C(C(=O)O)N2C(=O)C(NC(=O)Cc3csc(=N)n3O)C2SC1 (centres unmarked) [Example 1, sodium 7-[2-(2-imino-3-hydroxy-4-thiazolin-4-yl)acetamido]-3-acetoxymethyl-3-cephem-4-carboxylate] | 0.075 mg/kg | 3.13 µg/mL | 0.1 µg/mL | 1.56 µg/mL | 0.2 µg/mL | 3.13 µg/mL | ≤ 0.03 µg/mL | 0.39 µg/mL | 0.2 µg/mL | 0.39 µg/mL | 0.1 µg/mL | 0.1 µg/mL | 12.5 µg/mL | 0.2 µg/mL | –
6 | Cc1nnc(SCC2=C(C(=O)[O-])N3C(=O)C(NC(=O)Cn4cnnn4)[C@H]3SC2)s1.[Na+] (some centres unmarked) [Cefazolin, sodium 7-(1H-tetrazol-1-yl)acetamido-3-(2-methyl-1,3,4-thiadiazol-5-yl)thiomethyl-3-cephem-4-carboxylate, reference compound] | – | – | 1.56 µg/mL | – | – | – | – | – | – | – | – | – | – | – | MIC (E. coli T-7; [13]): > 100 µg/mL; MIC (Cit. freundii GN 99; [14]): 50 µg/mL; MIC (K. pneumoniae GN 3835; [15]): 12.5 µg/mL; MIC (E. coli NIHJ): 1.56 µg/mL; MIC (Cit. freundii GN 1706; [16]): > 100 µg/mL; MIC (P. rettgeri 8(TNO 336); [17]): 0.2 µg/mL; MIC (P. morganii IFO 3168; [18]): > 100 µg/mL; MIC (P. mirabilis GN 4359; [19]): 3.13 µg/mL; MIC (P. vulgaris IFO 3988; [20]): 3.13 µg/mL; MIC (P. rettgeri GN 4733; [21]): > 100 µg/mL; MIC (K. pneumoniae DT): 1.56 µg/mL
7 | N=c1scc(CC(=O)NC2C(=O)N3C(C(=O)O)=C(CSc4nnnn4CCO)CSC23)n1O (centres unmarked) [Example 17, sodium 7-[2-(2-imino-3-hydroxy-4-thiazolin-4-yl)acetamido]-3-[1-(2-hydroxyethyl)-1H-tetrazol-5-yl]thiomethyl-3-cephem-4-carboxylate] | – | 1.56 µg/mL | 0.05 µg/mL | 0.39 µg/mL | 0.1 µg/mL | 12.5 µg/mL | ≤ 0.012 µg/mL | 0.39 µg/mL | 0.1 µg/mL | 0.2 µg/mL | 0.05 µg/mL | 0.05 µg/mL | – | 0.1 µg/mL | –
8 | Cn1nnnc1SCC1=C(C(=O)O)N2C(=O)C(NC(=O)Cc3csc(=N)n3O)C2SC1 (centres unmarked) [Example 5, sodium 7-[2-(2-imino-3-hydroxy-4-thiazolin-4-yl)acetamido]-3-(1-methyltetrazol-5-yl) thiomethyl-3-cephem-4-carboxylate] | – | 1.56 µg/mL | ≤ 0.03 µg/mL | 0.39 µg/mL | 0.05 µg/mL | 0.78 µg/mL | ≤ 0.03 µg/mL | 0.78 µg/mL | 0.1 µg/mL | 0.2 µg/mL | 0.05 µg/mL | 0.05 µg/mL | 6.25 µg/mL | 0.1 µg/mL | –
9 | Cn1c(CO)nnc1SCC1=C(C(=O)[O-])N2C(=O)C(NC(=O)Cc3csc(=N)n3O)[C@H]2SC1.[Na+] (some centres unmarked) [Example 8, sodium 7-[2-(2-imino-3-hydroxy-4-thiazolin-4-yl)acetamido]-3-(3-hydroxymethyl-4-methyl-1,2,4-triazol-5-yl)thiomethyl-3-cephem-4-carboxylate] | – | – | ≤ 0.2 µg/mL | – | – | – | – | – | – | – | – | – | – | – | MIC (E. coli T-7; [13]): 1.56 µg/mL; MIC (Cit. freundii GN 99; [14]): 0.78 µg/mL; MIC (Ent. cloacae IFO 12937; IFO12937, read-out: Minimum Inhibitory Concentration): 12.5 µg/mL; MIC (K. pneumoniae GN 3835; [15]): ≤ 0.2 µg/mL; MIC (E. coli NIHJ): ≤ 0.2 µg/mL; MIC (Cit. freundii GN 1706; [16]): 3.13 µg/mL; MIC (P. rettgeri 8(TNO 336); [17]): ≤ 0.2 µg/mL; MIC (P. morganii IFO 3168; [18]): ≤ 0.2 µg/mL; MIC (P. mirabilis GN 4359; [19]): ≤ 0.2 µg/mL; MIC (P. vulgaris IFO 3988; [20]): 0.39 µg/mL; MIC (P. rettgeri GN 4733; [21]): ≤ 0.2 µg/mL; MIC (K. pneumoniae DT): ≤ 0.2 µg/mL
